Reference: patent publication US20090197955A1, “METHODS OF IMPROVING DHA DEPOSITION AND RELATED FUNCTION AND/OR DEVELOPMENT” (Monsanto Company, priority 2008, published 2009)

Test: Fatty acid composition of pig tissues (ham, loin, belly, skin) after feeding SDA ethyl ester diets, 35 day study
Format: in vivo, pigs
Description: A 35 day study was conducted to determine whether pigs fed a diet containing SDA could enhance tissues with improved fatty acid profiles including increased levels of SDA, EPA, and DHA.
Four test diets (Treatment 2, 3, 4, and 5) with SDA ethyl ester substituted for corn oil to provide 0.2, 0.4, 0.6 and 0.8% (w/w SDA active ingredient, as-is basis) were fed ad libitum to one pen of four pigs throughout the 35-day test period Table 4). All diets were fed in meal form. Treatment 6 was fed the same diet as Treatment 5, but for a duration of only 21 days.
All pigs were individually weighed at initiation of the acclimation and test period, and immediately prior to slaughter. Feed consumption per pen was recorded. Upon completion of the feeding period, pigs were slaughtered for tissue collection and carcass evaluation. Pigs were slaughtered using standard industry practices (electrical stunning, exsanguinations, scalding, dehairing and evisceration). Live weights prior to slaughter and hot carcass weights were recorded. The left side of each carcass was fabricated and samples were obtained from the loin (longissimus muscle), ham (semimembranosus muscle) and belly (a section from the center of the belly) for sensory evaluation, fatty acid, and proximate analysis. Prior to removing the sample for sensory and fatty and proximate analysis from the belly the firmness of the belly was evaluated using a flop test. At 24 hr postmortem fat thickness (10th rib), loin eye area (10th rib), visual color, firmness and marbling, Minolta color (L*a*b*), pH, and drip loss were measured.
In order to evaluate the fatty acid composition of pig tissues (loin, ham, skin, and belly), samples were stored at −80° C. until evaluation. After thawing, ˜22 g of fresh pig tissue was chopped into small pieces and thoroughly mixed before 10 g was sub sampled and lyophilized. Lyophilized samples were ground in 30 ml Sarstedt tubes with two ball bearings using a Mega Grinder. Ground samples (loin and ham: 50 mg; skin: 100 mg; belly: 150 mg; diet: 500 mg) were directly methylated with sulfuric acid in methanol (loin and ham: 1 mL; skin: 3 mL; belly: 10 mL; diet: 1.5 mL) sealed in the presence of butylated hydroxytoluene (50 mg BHT in 100 ml reagent) in reflux conditions of 90° C. Resultant fatty acid methyl esters (FAME's) were separated by capillary gas chromatography (GC) and detected by flame ionization detector (FID). The column used was a Supelco Omegawax 250 capillary column with dimensions of 30 m×0.25 mm×0.25 μm film thickness. The run time was 32 minutes. Peaks were identified based on their relative retention time compared to a FAME reference mixture. Quantification was achieved by using an internal standard (c15:0 triacylglyceride (TAG) for pig tissue samples and c17:0 TAG for diet samples). Results are reported as FA g/100 g fat with theoretical response correction.
For Table 6 below, each value represents g/100 g total fatty acids a mean of 4 samples (1 sample from each of 4 pigs) per treatment.

## CC/C=C\C/C=C\C/C=C\C/C=C\CCCCC(=O)O [SDA, stearidonic acid]
0.8% SDA feed, 35 days
  22:3 n-6, ham: 0.24 g FA per 100 g fat
  22:5 n-3 (DPA), ham: 0.83 g FA per 100 g fat
  22:6 n-3 (DHA), ham: 0.13 g FA per 100 g fat
  24:1 n-9, ham: 0.07 g FA per 100 g fat
  Total PUFA, ham: 18.89 g FA per 100 g fat
  Total monoenes, ham: 43.54 g FA per 100 g fat
  Total n-3, ham: 2.64 g FA per 100 g fat
  Total n-6, ham: 16.25 g FA per 100 g fat
  Total saturates, ham: 33.18 g FA per 100 g fat
  n-6/n-3, ham: 6.16
SDA 0.2%, 35 Day
  12:0, ham: 2.04 mg FA/100 g of fresh tissue
  14:0, ham: 34.0 mg FA/100 g of fresh tissue
  16:0, ham: 673.5 mg FA/100 g of fresh tissue
  16:1 n-7, ham: 116.6 mg FA/100 g of fresh tissue
  18:0, ham: 313.7 mg FA/100 g of fresh tissue
  18:1 n-7, ham: 146.2 mg FA/100 g of fresh tissue
  18:1 n-9, ham: 1303.4 mg FA/100 g of fresh tissue
  18:2 n-6, ham: 264.7 mg FA/100 g of fresh tissue
  18:3 n-3, ham: 5.60 mg FA/100 g of fresh tissue
  18:4 n-3, ham: 0.76ab mg FA/100 g of fresh tissue
  20:1 n-9, ham: 22.0 mg FA/100 g of fresh tissue
  20:2 n-6, ham: 11.4a mg FA/100 g of fresh tissue
  20:3 n-3, ham: 0.91 mg FA/100 g of fresh tissue
  20:4 n-3, ham: 2.23ab mg FA/100 g of fresh tissue
  20:4 n-6, ham: 57.4 mg FA/100 g of fresh tissue
  20:5 n-3, ham: 3.98a mg FA/100 g of fresh tissue
  22:1 n-11, ham: 1.06ab mg FA/100 g of fresh tissue
  22:5 n-3, ham: 11.1b mg FA/100 g of fresh tissue
  22:6 n-3, ham: 2.21 mg FA/100 g of fresh tissue
  Lipid content, ham: 3.15%
  Total PUFA, ham: 377.9 mg FA/100 g of fresh tissue
  Total monoenes, ham: 1600 mg FA/100 g of fresh tissue
  Total n-3, ham: 26.8a mg FA/100 g of fresh tissue
  Total n-6, ham: 351.2 mg FA/100 g of fresh tissue
  Total saturates, ham: 1029.0 mg FA/100 g of fresh tissue
  n-3/n-6, ham: 0.080b
SDA 0.4%, 35 Day
  12:0, ham: 2.22 mg FA/100 g of fresh tissue
  14:0, ham: 38.2 mg FA/100 g of fresh tissue
  16:0, ham: 748.4 mg FA/100 g of fresh tissue
  16:1 n-7, ham: 121.6 mg FA/100 g of fresh tissue
  18:0, ham: 370.6 mg FA/100 g of fresh tissue
  18:1 n-7, ham: 151.0 mg FA/100 g of fresh tissue
  18:1 n-9, ham: 1404.9 mg FA/100 g of fresh tissue
  18:2 n-6, ham: 316.6 mg FA/100 g of fresh tissue
  18:3 n-3, ham: 9.17 mg FA/100 g of fresh tissue
  18:4 n-3, ham: 1.45b mg FA/100 g of fresh tissue
  20:1 n-9, ham: 23.6 mg FA/100 g of fresh tissue
  20:2 n-6, ham: 12.7a mg FA/100 g of fresh tissue
  20:3 n-3, ham: 1.49 mg FA/100 g of fresh tissue
  20:4 n-3, ham: 5.04bc mg FA/100 g of fresh tissue
  20:4 n-6, ham: 64.3 mg FA/100 g of fresh tissue
  20:5 n-3, ham: 7.91b mg FA/100 g of fresh tissue
  22:1 n-11, ham: 1.25b mg FA/100 g of fresh tissue
  22:5 n-3, ham: 15.2c mg FA/100 g of fresh tissue
  22:6 n-3, ham: 2.59 mg FA/100 g of fresh tissue
  Lipid content, ham: 3.5%
  Total PUFA, ham: 459.2 mg FA/100 g of fresh tissue
  Total monoenes, ham: 1715 mg FA/100 g of fresh tissue
  Total n-3, ham: 42.9b mg FA/100 g of fresh tissue
  Total n-6, ham: 416.4 mg FA/100 g of fresh tissue
  Total saturates, ham: 1166.5 mg FA/100 g of fresh tissue
  n-3/n-6, ham: 0.101bc
SDA 0.6%, 35 Day
  12:0, ham: 1.37 mg FA/100 g of fresh tissue
  14:0, ham: 23.9 mg FA/100 g of fresh tissue
  16:0, ham: 482.6 mg FA/100 g of fresh tissue
  16:1 n-7, ham: 69.5 mg FA/100 g of fresh tissue
  18:0, ham: 252.5 mg FA/100 g of fresh tissue
  18:1 n-7, ham: 92.6 mg FA/100 g of fresh tissue
  18:1 n-9, ham: 854.9 mg FA/100 g of fresh tissue
  18:2 n-6, ham: 215.7 mg FA/100 g of fresh tissue
  18:3 n-3, ham: 5.03 mg FA/100 g of fresh tissue
